Source: patent publication US20070212331A1, “Methods and compositions for selectively killing cells” (priority 2006, published 2007)
“Also recorded” adds a separate entry of the source. Like-named read-outs stand apart in the source and are kept apart here. Where a SMILES comes first, the peptide text is derived from it. The star is where a group is joined. Cbz = O=C(OCc1ccccc1)*; CH2F = FC*

Legend:
PC12 cells = experiment: Zinc-induced cell death of PC12 cells; format: cell-based; design: cell lysis (indicative of necrosis) of PC12 cells: dose or concentration left out as unconfirmed; settings: for effect on cell viability: high (mM) concentrations
[1] = tested on: IIC9 cells (embryonic fibroblasts); experiment: IIC9 cell death by trypan blue uptake; format: cell-based; settings: for effect on cell viability: high (mM) concentrations; for attenuation of zinc-induced cell death: Z-VAD preincubation; for cell death: 6 h (FIG. 1A)
ERK1/2 = ERK1/2 activation in IIC9 cells, Western blot with anti-pERK antibody; format: cell-based; design: time until ERK activation is detected after zinc addition / time ERK activation remains elevated: dose or concentration left out as unconfirmed; settings: for effect of inhibitor on ERK activation by zinc: IIC9 cells preincubated with inhibitor
Procedure: (§1) Assays: ERK1/2 activation was determined by harvesting cells directly in boiling SDS-PAGE sample buffer and probing corresponding Western Blots with anti-pERK antibody (Cell Signaling). Blots were stripped and reprobed for total ERK (Cell Signaling). Ras activation was determined using the Raf-RBD assay (21,24). Identification of the specific Ras isoform activated was determined by probing the western blot with isoform-specific antibody (Upstate Biotechnology). Transfection of IIC9 cells was carried out using Novafector. Transfection efficiency of these cells is approximately 90%. The constructs for expression of dn-Ras and Bcl-Xl were kindly provided by Dr. J. Corbett and Dr. Chinnaduri (SLU).

ERK = ERK activation (pERK) in PC12 cells; format: cell-based
[2] = tested on: IIC9 cells (embryonic fibroblasts); experiment: IIC9 cell morphology, microscopic examination; format: cell-based
Procedure: FIG. 1 depicts zinc-induced cell death in a time and dose dependent manner. (A) IIC9 cells (embryonic fibroblasts) were serum starved for 2 days and treated with the indicated concentrations of zinc for the indicated time periods. Cell death was monitored by trypan blue exclusion as described in the Materials and Methods. (B-D) Zinc-induced cell death is accompanied by morphological changes associated with apoptosis and necrosis. Shown are cells that were incubated with either 50 μM (C) or 200 μM (D) zinc for 6 hours. Control cells (B) were untreated. Cells were examined microscopically for changes in cell shape and size. […] Cell debris, indicative of cell lysis, was evident.
Cells and Incubation Conditions: IIC9 cells were grown in DMEM containing 10% FCS, P/S. Cells were plated in 12-well plates and grown to approximately 70% confluency. At that time, cells were serum arrested by changing the medium to DMEM (low glucose) without FCS. After 48 hours, cells were treated with zinc as described in the text. Cell death was quantified by trypan blue uptake. Cells were incubated with trypan blue (0.04%) for 5 min. Cells were examined microscopically and the number of blue cells and total cells were counted. Four fields were examined for each condition, with a minimum of 100 cells/field. To examine the effects of selective inhibitors, cells were preincubated with the indicated compound for 30 min. prior to zinc treatment.

RAW (macrophage) cells = experiment: Zinc-induced death of RAW (macrophage) cells; format: cell-based
Procedure: Exemplary cell types were treated in vitro with varying amounts of zinc (zinc chloride or zinc sulfate), in the presence or absence of the zinc ionophore pyrithione.

[3] = tested on: N18TG2 (neuroblastoma) cells; experiment: Zinc-induced death of N18TG2 (neuroblastoma) cells; format: cell-based; settings: 24 h incubation
Procedure: Exemplary cell types were treated in vitro with varying amounts of zinc (zinc chloride or zinc sulfate), in the presence or absence of the zinc ionophore pyrithione. […] Cell death involves both apoptosis and necrosis as determined by morphological observation.

Ras = Ras activation in IIC9 cells, Raf-RBD pull-down assay; format: cell-based; settings: for Ras isoform activated: isoform-specific antibody
Procedure: as §1
Because Ras is a common upstream activator of ERK1/2 (36), we reasoned that zinc may induce the phosphorylation of ERK1/2 via Ras. This was examined by incubating IIC9 cells with 100 uM zinc and assessing Ras activation by RBD pull-down of GTP-Ras followed by Western blot analysis with a pan-Ras antibody. […] The critical role of Ras in mediating the effects of zinc was confirmed by examining the effect of over-expression of dnRas. […] Consistent with Ras as the upstream activator of the cytotoxic effect of zinc on IIC9, expression of dn H-Ras also attenuates zinc-mediated cell death (FIG. 5B).

[4] = tested on: PC3 cells (prostate cancer cell line); experiment: Killing of PC3 cells by zinc and zinc-containing liposomes; format: cell-based; settings: PC3 cells in culture (FIG. 6)
Procedure: These cells express high levels of the transferrin receptor and can be targeted by covalently attaching transferrin to the formed liposomes.
We next tested the ability of these liposomes to kill PC3 cells in culture (FIG. 6).
Non-prophetically, zinc containing liposomes were prepared by injecting ethanolic solutions of lipids into 10 mM Hepes buffer pH 6 containing 2.5 M ZnCl2. To make the ethanolic lipid solution, lipids initially dissolved in chloroform were dried by passing gaseous nitrogen over the solution. The dried lipids were dissolved in ethanol at a concentration of […] of phospholipids per mL of alcohol. The alcoholic lipid solution containing dioleoyl phosphatidyly choline, 1,2 dioleoyl phosphatidyly ethanolamine, 1,2 dioleolyl phosphatidyletanolamine-N-4-(p-maleimido-phenyl)butyramide) and cholesterol in a ratio of 7:2:0.05:1 was slowly (0.5 ml/min) injected through a Hamilton syringe into 3 mL of a magnetically stirred Hepes buffer, containing 2.5 mM ZnCl2 The final concentration of ethanol was between 2.5-7.5%. During injection of the lipids, the solution was constantly stirred by a standard magnetic stirrer. To ensure that the temperature of the liposome solution was well above the phase transition of the lipids, the temperature was kept at […]. […]

[5] = tested on: CD4+ CD8+ alpha beta TCR10CD3(10) thymocytes; settings: 80-200 μM zinc; cited from earlier work
[6] = PC12 cells, same range of concentrations as zinc
[7] = IIC9 cells, same range of concentrations as zinc

## [Ca] [Ca]
PC12 cells; PC12 cells
  effect on cell viability: no effect on cell viability
[1]; IIC9 cells
  effect on cell viability: no effect on cell viability

## [Cd] [Cd]
PC12 cells; [6]
  cell death (apoptosis or necrosis) by metal salts: did result in cell death

## [Cl-].[Cl-].[Co+2] [CoCl2]
PC12 cells
  cell death (apoptosis or necrosis) by metal salts: No cell death
[1]
  cell death by metal salts: does not result in the cell death

## O=S(=O)([O-])[O-].[Cu+2] [CuSO4]
PC12 cells; [6]
  cell death (apoptosis or necrosis) by metal salts: No cell death
[1]; [7]
  cell death by metal salts: does not result in the cell death

## [Li] [Li]
PC12 cells; PC12 cells
  effect on cell viability: no effect on cell viability
[1]; IIC9 cells
  effect on cell viability: no effect on cell viability

## [Mg] [Mg]
PC12 cells; PC12 cells
  effect on cell viability: no effect on cell viability
[1]; IIC9 cells
  effect on cell viability: no effect on cell viability

## [Mn] [Mn]
PC12 cells; PC12 cells
  effect on cell viability: no effect on cell viability
[1]; IIC9 cells
  effect on cell viability: no effect on cell viability

## [Cl][Ni][Cl] [NiCl2]
PC12 cells; [6]
  cell death (apoptosis or necrosis) by metal salts: No cell death
[1]; [7]
  cell death by metal salts: does not result in the cell death

## COc1cc2ncnc(Nc3cccc(Br)c3)c2cc1OC [PD153035]
ERK1/2
  effect of inhibitor on ERK activation by zinc: does not alter ERK activation

## CC(C)(C)n1nc(-c2ccc(Cl)cc2)c2c(N)ncnc21 [PP2]
ERK1/2
  effect of inhibitor on ERK activation by zinc: does not inhibit zinc activation of ERK1/2

## C[S+]([O-])c1ccc(-c2nc(-c3ccncc3)c(-c3ccc(F)cc3)[nH]2)cc1 (stereo not shown) [SB203580]
[1]; 30 min preincubation, then 50 μM zinc (FIG. 2A)
  effect of preincubation with inhibitor on zinc-mediated cell death: does not affect zinc-mediated cell death

## N#CC(=C(/N)Sc1ccccc1N)/C(C#N)=C(\N)Sc1ccccc1N [U0126]
PC12 cells
  effect of preincubation on zinc-induced cell death: greatly attenuated
ERK; PC12 cells preincubated with inhibitor
  effect of preincubation on zinc-induced ERK activation: attenuated that activation
[1]
  cell death in cells pretreated with inhibitor: Little or no death
  effect of preincubation with inhibitor on zinc-mediated cell death: inhibits zinc-induced cell death
ERK1/2
  effect of inhibitor on ERK activation by zinc: significantly reduces ERK activation; also recorded: significantly reduced
[2]; cells preincubated with inhibitor, 50 μM zinc (FIG. 2B-D)
  effect on morphological changes induced by zinc: limited; also recorded: prevented the morphological changes

## CC(NC(=O)C(NC(=O)OCc1ccccc1)C(C)C)C(=O)NC(CC(=O)O)C(=O)CF (stereo not drawn) [Z-VAD] (Cbz-Val-Ala-Asp-CH2F; configuration not given here)
[1]; 50 μM zinc, first 6 hours of zinc treatment
  cell death in cells pretreated with Z-VAD: little cell death
[1]; 50 μM zinc, 21 h
  attenuation of zinc-induced cell death: 50%
[1]; 100 μM zinc, 21 h
  attenuation of zinc-induced cell death: limited attenuation
[1]; 100 μM zinc, first 6 hours
  attenuation of zinc-induced cell death: approximately 50%
[1]; early hours (3-6), indicated zinc concentrations (FIG. 3A)
  effect of Z-VAD on zinc-mediated cell death: greatly attenuated death

## O=S(=O)([O-])[O-].[Zn+2] [ZnSO4]
PC12 cells; [6]
  cell death (apoptosis or necrosis) by metal salts: equally effective as ZnCl2
[1]; [7]
  cell death by metal salts: equally effective as ZnCl2

## [Cl-].[Cl-].[Zn+2] [zinc]
RAW (macrophage) cells; 25 μM zinc, 0.0 hours of incubation
  % cell death: 0.0%
RAW (macrophage) cells; 25 μM zinc, 1.0 hours of incubation
  % cell death: 0.0%
RAW (macrophage) cells; 25 μM zinc, 3.0 hours of incubation
  % cell death: 0.0%
RAW (macrophage) cells; 25 μM zinc, 5.0 hours of incubation
  % cell death: 0.0%
RAW (macrophage) cells; 50 μM zinc, 5.0 hours of incubation
  % cell death: 0.0%
RAW (macrophage) cells; 50 μM zinc, 18.0 hours of incubation
  % cell death: 20.0%
RAW (macrophage) cells; 100 μM zinc, 18.0 hours of incubation
  % cell death: 100.0%
[3]; 25 μM zinc
  % death: 19%
[3]; 50 μM zinc
  % death: 75%
[3]; 75 μM zinc
  % death: 84%
[3]; 150 μM zinc
  % death: 90%
PC12 cells; higher zinc concentrations or longer time periods
  cell lysis (indicative of necrosis) of PC12 cells: significant cell lysis
PC12 cells; undifferentiated or differentiated PC12 cells, in vitro
  cell death of PC12 cells: time and dose-dependent cell death
ERK; PC12 cells, after zinc treatment
  time until pERK could be detected: within five minutes
ERK; PC12 cells, longest time period examined
  time pERK remained at that level: at least five hours
ERK; zinc treatment of PC12 cells
  ERK activation: induced ERK activation
[1]; 50 μM zinc, 6-h incubation, experiment of FIG. 2A
  death of the population: approximately 25%
[1]; 50 μM zinc
  cell death: ~15%
[1]; 100 μM zinc
  cell death: ~25%
[1]; 200 μM zinc
  cell death: approximately 45%
[1]; IIC9 cells, in the absence of pyrithione
  extracellular zinc concentration necessary to induce the death pathway: ≥ 50 µM
[1]; addition of zinc
  cell death of IIC9 cells: time- and concentration-dependent
[1]; zinc concentrations as high as 200 μM, first few hours
  cell death during the first few hours: Little or no death
ERK1/2; IIC9 cells, western blotting with pERK antibody (FIG. 2E)
  induction of pERK: does induce pERK
ERK1/2; IIC9 cells, zinc
  time until ERK activation is detected after zinc addition: ≤ 5 min
ERK1/2; IIC9 cells, zinc, longest time period examined
  time ERK activation remains elevated: at least 6 h
Ras; IIC9 cells, 100 uM zinc, pan-Ras antibody (FIG. 5A)
  activation of Ras: ~5 fold
Ras; IIC9 cells
  Ras isoform activated: selective activation of H-Ras
[4]
  cell death of PC3 cells: underwent cell death
[2]; 50 μM zinc, 6 hours (FIG. 1C)
  cell morphology: rounded and displayed differing degrees of cell shrinkage
[2]; 50 μM zinc, first few hours of incubation
  cell population displaying a rounded morphology: approximately 50%
[2]; 200 μM zinc, 6 hours (FIG. 1D)
  cell morphology: more varied morphology
[2]; 100 or 200 uM zinc, first few hours
  cell morphology: all cells were rounded and underwent differing degrees of cell shrinkage
[5]
  thymocytes in which apoptosis was induced: 40%

## thrombin
Ras; IIC9 cells stimulated with thrombin, previous finding of the inventors
  activation of Ras: 3- to 5 fold
Ras; IIC9 cells
  Ras isoform activated: rapid activation of N-Ras, followed by a sustained activation of K-Ras
